Source: ChEMBL document CHEMBL5537117, “Novel 3-hydroxypyridin-4(1H)-One derivatives as ferroptosis inhibitors with iron-chelating and reactive oxygen species scavenging activities and therapeutic effect in cisplatin-induced cytotoxicity” (Eur J Med Chem, 2024)

Key:
[1] = Log K1 of the compound in 0.1M KCl at pH 0.9 to 2.1 by UV absorption method; assay type: physicochemical
[2] = Acid dissociation constant, pKa2 of the compound in 0.1M KCl at pH 2.0 to 10.5 by UV absorption method; assay type: physicochemical
[3] = Antioxidant activity assessed as ABTS radical scavenging activity incubated in dark for 6 mins by absorbance based microplate reader analysis; assay type: functional
[4] = Antioxidant activity assessed as trolox equivalent of ORAC radical scavenging activity at 8 uM; assay type: functional
[5] = Metal chelating activity assessed as Fe3+ chelation
[6] = Acid dissociation constant, pKa1 of the compound in 0.1M KCl at pH 2.0 to 10.5 by UV absorption method; assay type: physicochemical
[7] = Acid dissociation constant, pKa3 of the compound in 0.1M KCl at pH 2.0 to 10.5 by UV absorption method; assay type: physicochemical
[8] = Antioxidant activity assessed as trolox equivalent of ORAC radical scavenging activity at 4 uM; assay type: functional
[9] = Log K2 of the compound in 0.1M KCl at pH 2.0 to 10.5 by UV absorption method; assay type: physicochemical
[10] = test system: HT-22; test: Cytotoxicity against mouse HT-22 cells assessed as reduction in cell viability at 150 uM by MTT assay relative to control; assay type: toxicity, cell-based; conditions: ht-22, 150 µM
[11] = test system: HT-22; test: Anti-ferroptotic activity in erastin-induced ferroptosis in mouse HT-22 cells assessed as cell viability incubated for 24 hrs by MTT assay; assay type: functional, cell-based; conditions: HT-22, 24 h
[12] = Log K3 of the compound in 0.1M KCl at pH 2.0 to 10.5 by UV absorption method; assay type: physicochemical

Structure (SMILES)	log(activity) [1]	pKa [2]	IC50 [3] [µM]	Activity [4]	Activity [5]	pKa [6]	pKa [7]	Activity [8]	log(activity) [9]	Activity [10] [%]	EC50 [11] [µM]	log(activity) [12]
COc1ccccc1/C=C/C(=O)Nn1ccc(=O)c(O)c1C	14.14	7.09	4.78	14.6	17.4	2.46	10.3	8.92	26.17	> 80	18.2	35.48
Cc1ccc(/C=C/C(=O)Nn2ccc(=O)c(O)c2C)cc1	13.93	7.24	4.79	2.89	16.8	2.25	10.3	0.72	26.49	–	–	34.5
Cc1c(O)c(=O)ccn1NC(=O)/C=C/c1cccc(Cl)c1F	–	–	21.8	1.24	–	–	–	< 0.1	–	–	–	–
O=C(O)/C=C/c1ccccc1 [CINNAMIC ACID]	–	–	> 100	1.13	–	–	–	1.27	–	–	–	–
Cc1c(O)c(=O)ccn1NC(=O)/C=C/c1ccccc1Cl	14.03	6.96	5.14	6.46	17.4	2.22	10.2	2.67	26.11	–	–	35.29
Cc1ccccc1/C=C/C(=O)Nn1ccc(=O)c(O)c1C	13.79	6.98	4.68	3.09	17.6	2.23	10.2	0.97	25.95	–	–	35.43
Cc1cccc(C)c1/C=C/C(=O)Nn1ccc(=O)c(O)c1C	13.71	6.97	4.88	5.6	16.9	2.06	10.3	2.91	25.8	–	–	35.08
Cc1c(O)c(=O)ccn1NC(=O)/C=C/c1ccc(F)cc1F	14.11	6.83	7.51	2.67	17.5	2.57	10.2	1.17	26.11	–	–	35.31
Cc1cccc(/C=C/C(=O)Nn2ccc(=O)c(O)c2C)c1C	14.07	7.06	10.2	13.1	17.5	2.38	10.3	7.64	26.22	–	–	35.67
COc1cccc(/C=C/C(=O)Nn2ccc(=O)c(O)c2C)c1	14.2	6.99	4.78	16.1	17.8	2.4	10.2	8.99	26.72	> 80	26.2	35.64
Cc1c(O)c(=O)ccn1NC(=O)/C=C/c1ccc(C(F)(F)F)cc1	–	–	12	0.61	–	–	–	< 0.1	–	–	–	–
Cc1c(O)c(=O)ccn1NC(=O)/C=C/c1ccccc1F	14.34	6.74	4.38	24.9	17.6	2.4	10.3	18.1	26.41	> 80	25.8	35.75
Cc1c(O)c(=O)ccn1NC(=O)/C=C/c1ccc(F)cc1	14.3	7.15	4.97	34.1	17.8	2.64	10.2	22.8	26.34	> 80	17.4	35.77
Cc1c(O)c(=O)ccn1NC(=O)/C=C/c1ccc(F)cc1Cl	14.41	6.7	5.01	4.78	17.6	2.71	10.2	2.15	26.4	–	–	35.55
O=C(/C=C/c1ccccc1)c1ccccc1 [CHALCONE]	–	–	–	–	–	–	–	–	–	–	> 500	–
Cc1c(O)c(=O)ccn1NC(=O)/C=C/c1c(F)cccc1F	14.27	6.83	4.81	5.03	17.4	2.51	10.2	2.45	26.25	–	–	35.32
COc1ccc(/C=C/C(=O)Nn2ccc(=O)c(O)c2C)c(F)c1	–	–	> 100	6.01	–	–	–	< 0.1	–	–	–	–
COc1ccc(/C=C/C(=O)Nn2ccc(=O)c(O)c2C)c(OC)c1OC	13.72	7.29	6.99	14.8	17	2.1	10.2	8.52	25.73	> 80	19.6	35
Oc1ccc(/C=C/c2cc(O)cc(O)c2)cc1 [RESVERATROL]	–	–	5.14	17.6	–	–	–	16.7	–	–	–	–
Cc1c(O)c(=O)ccn1NC(=O)/C=C/c1cc(Cl)ccc1Cl	14.19	7.34	> 100	6.56	17.7	2.48	10	3.06	26.02	–	–	35.05
COc1cc(F)ccc1/C=C/C(=O)Nn1ccc(=O)c(O)c1C	14.06	7.02	5.01	3.83	17	2.34	10.4	1.21	26.09	–	–	35.29
Cc1c(O)c(=O)ccn1NC(=O)/C=C/c1ccc(Cl)cc1	–	–	8.66	< 0.1	–	–	–	< 0.1	–	–	–	–
Cc1c(O)c(=O)ccn1NC(=O)/C=C/c1ccccc1	13.61	7.1	4.8	11.4	17.9	2.37	10.1	6.73	25.88	> 80	72	35.4
Cc1c(C)c2c(c(C)c1O)CCC(C)(C(=O)O)O2 (stereo not drawn) [TROLOX]	–	–	15.3	–	–	–	–	–	–	–	–	–
COc1ccc(/C=C/C(=O)Nn2ccc(=O)c(O)c2C)cc1	14.01	7.41	5.17	19.4	17.1	2.42	10.3	9.42	26.09	–	28.9	35.52
Cc1cccc(/C=C/C(=O)Nn2ccc(=O)c(O)c2C)c1	13.57	7.23	4.91	2.51	15.8	1.3	10.4	0.57	25.95	–	–	35.55
